Values of other authors in patent US20150045610A1, “METHOD OF MODIFYING SPERMATOGENESIS, SPERMIOGENESIS AND/OR FERTILITY IN MAMMALS” (Monell Chemical Senses Center, priority 2012, published 2015).

Target: T1, human T1R3 receptor (Homo sapiens, UniProt Q7RTX0)
T1 construct: expressed in transfected cells
T1 sequence (Q7RTX0 21-852): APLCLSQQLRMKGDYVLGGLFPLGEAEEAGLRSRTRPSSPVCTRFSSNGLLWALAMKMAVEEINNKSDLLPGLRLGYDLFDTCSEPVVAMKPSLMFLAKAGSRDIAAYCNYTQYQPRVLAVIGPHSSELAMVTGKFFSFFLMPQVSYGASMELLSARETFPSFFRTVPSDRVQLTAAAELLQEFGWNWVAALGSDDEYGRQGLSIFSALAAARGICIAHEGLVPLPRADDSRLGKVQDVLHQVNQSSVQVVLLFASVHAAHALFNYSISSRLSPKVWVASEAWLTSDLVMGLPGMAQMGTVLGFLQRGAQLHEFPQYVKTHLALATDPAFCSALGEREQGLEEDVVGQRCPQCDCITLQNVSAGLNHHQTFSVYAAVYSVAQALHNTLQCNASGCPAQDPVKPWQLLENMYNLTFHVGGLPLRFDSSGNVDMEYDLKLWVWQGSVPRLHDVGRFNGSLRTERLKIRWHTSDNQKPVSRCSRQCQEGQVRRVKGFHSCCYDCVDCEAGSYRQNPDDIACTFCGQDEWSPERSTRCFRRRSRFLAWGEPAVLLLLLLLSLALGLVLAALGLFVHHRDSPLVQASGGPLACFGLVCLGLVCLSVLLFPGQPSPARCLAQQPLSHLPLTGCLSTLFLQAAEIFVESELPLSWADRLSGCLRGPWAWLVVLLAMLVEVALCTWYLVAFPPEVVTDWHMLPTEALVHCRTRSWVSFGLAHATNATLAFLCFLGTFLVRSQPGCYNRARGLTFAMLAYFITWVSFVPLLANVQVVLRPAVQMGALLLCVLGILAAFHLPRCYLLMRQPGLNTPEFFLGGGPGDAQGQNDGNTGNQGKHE
T1 sequence (Q8TE23 20-839 partner): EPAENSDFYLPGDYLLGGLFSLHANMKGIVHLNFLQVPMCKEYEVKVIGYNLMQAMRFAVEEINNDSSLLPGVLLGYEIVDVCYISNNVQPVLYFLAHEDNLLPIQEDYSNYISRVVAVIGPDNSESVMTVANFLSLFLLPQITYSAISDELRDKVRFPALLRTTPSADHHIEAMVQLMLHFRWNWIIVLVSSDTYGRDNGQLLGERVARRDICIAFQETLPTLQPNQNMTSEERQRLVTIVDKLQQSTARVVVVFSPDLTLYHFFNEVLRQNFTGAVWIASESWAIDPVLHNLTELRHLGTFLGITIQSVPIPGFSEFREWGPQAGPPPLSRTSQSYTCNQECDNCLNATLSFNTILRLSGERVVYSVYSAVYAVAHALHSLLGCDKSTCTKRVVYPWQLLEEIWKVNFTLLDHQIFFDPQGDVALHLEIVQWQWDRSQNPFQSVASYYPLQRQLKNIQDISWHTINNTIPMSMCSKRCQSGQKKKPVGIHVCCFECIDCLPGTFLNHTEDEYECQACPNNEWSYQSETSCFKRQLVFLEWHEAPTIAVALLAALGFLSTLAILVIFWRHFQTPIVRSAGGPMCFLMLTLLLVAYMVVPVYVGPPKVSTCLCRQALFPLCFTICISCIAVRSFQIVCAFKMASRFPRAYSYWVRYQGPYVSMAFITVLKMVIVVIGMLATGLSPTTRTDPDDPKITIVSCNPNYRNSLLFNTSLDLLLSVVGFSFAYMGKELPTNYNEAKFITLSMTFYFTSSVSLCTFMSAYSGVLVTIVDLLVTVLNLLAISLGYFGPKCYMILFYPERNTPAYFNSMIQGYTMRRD
Settings: cited from earlier work

## CC(C)(Oc1ccc(Cl)cc1)C(=O)O [clofibric acid]
  T1R3 inhibition compared with PPAR-α activation: comparable to their activation of PPAR-α
